The source of these data is US9498532B2, “Antibody drug conjugates” (Novartis AG, priority 2013, dated 2016).

In the data set the test system is CHGA119 primary gastric tumor xenograft. Put plainly: Anti-tumor activity and host response in CHGA119 patient-derived xenograft. Particulars: CHGA119-tumor bearing mice, ADCs 10 mg/kg i.v. q2wk, BGJ398 10 mg/kg p.o. qd. (In general: Xenograft models place foreign cells or tissue in a host animal.)

Description: In these studies, CHGA119 tumor fragments in size of 2 mm×2 mm×2 mm were implanted subcutaneously (s.c.) into female nu/nu athymic mice. […] Tumors were calipered twice a week.

In the case of `CCN1CCN(c2ccc(Nc3cc(N(C)C(=O)Nc4c(Cl)c(OC)cc(OC)c4Cl)ncn3)cc2)CC1` [BGJ398, 3-(2,6-Dichloro-3,5-dimethoxy-phenyl)-1-{6-[4-(4-ethyl-piperazin-1-yl)-phenylamino]-pyrimidin-4-yl}-1-methyl-urea], the “Host response % body weight change (mean ± SEM)” value is −3.7 ± 3%, the “Host response Mean body weight change (g ± SEM)” value was -0.8 ± 0.7 g, the “Mean tumor volume change (mm^3 ± SEM)” value was 386 ± 169 mm^3 and the “Survival (survivors/total)” value is listed as 8/8. Further, for the setting “after 5 weeks of treatment”, the “Tumor response T/C (%)” value is recorded as 33%.
